Assay results published in patent US20070254843A1, “Methods for treating bone associated diseases by the use of methionine aminopeptidase-2 inhibitors” (Praecis Pharmaceuticals Incorporated, priority 2006, published 2007).

Tests used:
[1] = target: T1, MetAP-2 (Rattus norvegicus, UniProt P38062); test: MetAP-2 pharmacodynamic assay in wbc lysates; format: in vivo; settings: po, PG-PS arthritis rats, 1 mg/kg p.o. qod, read-out: MetAP-2 in wbc inhibited relative to vehicle-treated group
T1 construct: wbc from animals of each study group were pooled and cell lysates were prepared as previously described; from tissue; host or cells: white blood cells (wbc) of female Lewis rats, pooled per study group and lysed
T1 sequence (P38062 whole entry): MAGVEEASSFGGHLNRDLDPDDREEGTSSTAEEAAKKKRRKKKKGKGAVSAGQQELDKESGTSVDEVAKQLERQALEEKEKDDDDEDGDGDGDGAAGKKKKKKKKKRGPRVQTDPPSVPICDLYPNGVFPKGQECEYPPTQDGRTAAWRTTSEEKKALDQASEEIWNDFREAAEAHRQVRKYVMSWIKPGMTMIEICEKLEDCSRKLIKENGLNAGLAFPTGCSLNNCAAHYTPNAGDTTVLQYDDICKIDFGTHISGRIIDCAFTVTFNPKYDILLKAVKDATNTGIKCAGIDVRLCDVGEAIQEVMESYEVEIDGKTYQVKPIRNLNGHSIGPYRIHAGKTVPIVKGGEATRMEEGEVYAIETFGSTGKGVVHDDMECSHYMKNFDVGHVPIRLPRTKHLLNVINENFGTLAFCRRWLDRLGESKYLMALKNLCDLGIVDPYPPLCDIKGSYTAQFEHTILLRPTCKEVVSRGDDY
Protocol: MetAP-2 pharmacodynamic assay. The MetAP-2 assay measures the amount of uninhibited MetAP-2 in cells or tissues which has not been derivitized by prior treatment with the MetAP-2 inhibitor (Bernier (2004) Proc. Natl. Acad. Sci. USA 101: 10768-10773 and Bernier (2005) J. Cell. Biochem. 95: 1191-1203). Briefly, wbc from animals of each study group were pooled and cell lysates were prepared as previously described (Bernier (2004) Proc. Natl. Acad. Sci. USA 101: 10768-10773 and Bernier (2005) J. Cell. Biochem. 95: 1191-1203). 10 μg to 20 μg of wbc protein was incubated with a biotinylated analog of the MetAP-2 inhibitor which covalently binds to the catalytic site of MetAP-2. The biotinylated MetAP-2-inhibitor complex was captured on a plate with immobilized streptavidin (Pierce), and detected with the MetAP-2 antibody CM33 (0.5 μg/ml), followed by horseradish peroxidase-conjugated goat anti-rabbit IgG secondary antibody. The amount of uninhibited MetAP-2 was determined by measuring the absorption at 450 nm using a Labsystems Multiskan plate spectrophotometer. Human recombinant MetAP-2 (Mediomics), pre-bound to the biotinylated MetAP-2 inhibitor, was used to generate the standard curve. The detection limit of this assay was 0.47 ng MetAP-2 protein/mg wbc protein.
Since the MetAP-2 inhibitor had the ability to inhibit multiple cell types critical for pathogenesis of the bone associated disease, RA, in vitro, it was hypothesized that the observations from the in vitro studies (Example 1) would translate into protection from disease in animals in the PG-PS model of arthritis. The progression of disease in this model follows a biphasic mode, with an early acute, predominantly neutrophil-driven phase which persists to days 6-7, followed by a chronic, T cell dependent phase (evident around day 12), which is characterized by chronic inflammation and erosive synovitis (Palombella (1998) Proc. Natl. Acad. Sci. USA 95:15671-15676). Therapeutic dosing of animals administered the MetAP-2 inhibitor orally (p.o.) at 1, 5 and 10 mg/kg, every other day (qod), or vehicle started at day 15 after the chronic destructive phase of the disease was established and terminated on day 31. […] The amount of uninhibited MetAP-2 in wbc of animals from all treatment groups was measured after conclusion of the study, using the MetAP-2 pharmacodynamic assay (Bernier (2004) Proc. Natl. Acad. Sci. USA 101: 10768-10773 and Bernier (2005) J. Cell. Biochem. 95: 1191-1203). […]

[2] = system: PG-PS-induced arthritis; test: Clinical (histopathological) assessment of PG-PS arthritis, joint histology score; format: in vivo, rat; settings: PG-PS arthritis, 1 mg/kg
Protocol: Clinical assessment of PG-PS arthritis. The histopathological evaluation was performed on the left and right hind joints of randomly selected animals from each study group by an independent histopathologist without knowledge of specific interventions. After completion of the study, the left and right hind ankles were removed, fixed in 10% buffered formalin, decalcified in 5% formic acid, paraffin-embedded, sectioned, and H&E stained for histological evaluation. A joint histology scoring system which grades the severity of 4 histopathological processes (cell infiltration, pannus formation, cartilage erosion, bone resorption), was used to quantify hind joint involvement in the PG-PS arthritis model (36). Dependent on the assigned score for each parameter (0=normal, 1=minimal, 2=mild, 3=moderate, 4=marked), the maximum total score per ankle is 16, and 32 per animal.
It was investigated whether the protective activity of the MetAP-2 inhibitor in this animal model of arthritis, which is characterized by aggressive synovitis, extensive pannus formation, cartilage degradation and focal bone erosion, was mediated through regression in the severity of all clinical indices tested, or whether this activity was targeting specific pathogenic processes.
A joint histology scoring system which grades the severity of 4 histopathological processes (cell infiltration, pannus formation, cartilage erosion, bone resorption) was used (O'Byrne (1991) Agents and Actions 134:239-241).

[3] = system: PG-PS-induced arthritis; test: Microfocal computed tomography of hind joints in rat PG-PS arthritis model; format: in vivo; settings: PG-PS arthritis, 1 mg/kg; threshold 255
Protocol: Microfocal computed tomography. All specimens were scanned on a Scanco Medical AG μCT 40 system. Images were obtained with an isotropic voxel resolution of 20 microns. A matrix size of 1024×1024 with 1000 projections was utilized for all scans. A total of 1836 slices were scanned for each specimen (the number of slices scanned was determined by the length of the scan needed to cover the entire ankle including the distal tibia). The scan time per specimen was approximately 2.6 hours. The images were then volume rendered using a fixed threshold (at two different thresholds: 255 and 140). The total bone volume and BMD were calculated over the same regions of all the specimens. Micro-CT was performed at Scanco USA, Incorporated.
Finally, the activity of the MetAP-2 inhibitor on the structural preservation of hind joints in rats with established disease was investigated.
The ankles including the distal tibia were scanned using a Scanco Medical AG μCT 40 system (threshold: 255), and the total bone volume and BMD were calculated over the same regions of all specimens.

How did the inhibition at 1 mg/kg [1] turn out when `C[C@@H]1C[C@H]2[C@@H]3CCC4=CC(=O)C=C[C@]4(C)[C@@]3(F)[C@@H](O)C[C@]2(C)[C@@]1(O)C(=O)CO` [dex, dexamethasone, reference compound] was run?
The inhibition at 1 mg/kg was no less than 90%.

And the Total arthritis score [2]?
Its Total arthritis score is 2.35 ± 0.23^B.

And the “Bone Resorption score” value ([2]; score 0-4)?
Its value is 0.95 ± 0.13^B.

And the Cartilage erosion score ([2]; score 0-4)?
Its Cartilage erosion score is 0.60 ± 0.14^B.

What about the Cell infiltration score ([2]; score 0-4) of the same compound?
The Cell infiltration score was 0.25 ± 0.08^A.

What about the Pannus formation score ([2]; score 0-4) of the same compound?
Its Pannus formation score is 0.55 ± 0.08^A.

What about the BMD [3] of the same compound?
The BMD was 1125 ± 2.59 mg HA/ccm.

What about the “Bone Volume (Vox-BV)” value [3] of the same compound?
The value was 240.7 ± 12.68.
